Values after ≈ are worked out from the molar mass of the structure shown.

Data set [1] deals with Coxsackie B3 virus (strain Nancy). Kind of data set: Anti-coxsackie virus assay, cytopathic effect in Vero cells (MTS). Format: cell-based. The conditions noted are these: Enterovirus B, Table 13, reduction of virus (CBV-3 Nancy strain)-induced cytopathic effect in Vero cells by 50%. The procedure: (§1) Madin-Darbey Bovine Kidney (MDBK) cells were maintained in Dulbecco's modified Eagle medium (DMEM) supplemented with BVDV-free 5% fetal calf serum (DMEME-FCS) at 37° C. in a humidified, 5% CO2 atmosphere. BVDV-1 (strain PE515) was used to assess the antiviral activity in MDBK cells. Vero cells were maintained in the same way as MDBK cells. Vero cells were infected with Coxsackie B3 virus (strain Nancy).
(§2) Ninety-six-well cell culture plates were seeded with Vero cells in DMEM medium containing 10 fetal calf serum (FCS) so that cells reached confluency 24-48 hr later. Medium was then removed and serial 5-fold dilutions of the test compounds were added in a total volume of 100 ul, after which the virus inoculum (100 μl) was added to each well. […] Uninfected cells and cells receiving virus without compound were included in each asay plate. After 5 days, the medium was removed and 90 μl of DMEM-FCS and 10 μl of MTS/PMS solution (Promega) was added to each well. Following a 2 hr incubation period at 37° C., the optical density of the wells was read at 498 nm in a microplate reader. The 50% effective concentration (EC50) value was defined as the concentration of compound that protects 50% of the cell monolayer from virus-induced cytopathic effect.
In general terms: Cytopathic effects are the visible damage that an infection or toxin causes in cultured cells.

For another data set, the system named is Vero cells. Kind of data set: Metabolism of confluent Vero cells (MTS). It counts as cell-based. To be noted: Table 13; reduction of metabolism of confluent Vero cells by 50%, MTS method. The procedure:
as §1, §2
In general terms: Tetrazolium assays rely on reduction of a dye to a coloured formazan, in cell work by metabolically active cells.

A further data set deals with BVDV-1 (strain PE515). The data set can be described thus: Anti-BVDV assay, virus-induced cytopathic effect in MDBK cells (MTS). Format: cell-based, Bovine Viral Diarrhea Virus. The conditions noted are these: Bovine viral diarrhea virus isolates and strains; Table 9; reduction of virus induced cytopathic effect in MDBK cells by 50%; BVDV strain PE515; mean of 2-5 determinations; read-out: EC50. The procedure:
as §1
Ninety-six-well cell culture plates were seeded with MDBK cells in DMEM-FCS so that cells reached 24 hr later confluency. Then medium was removed and serial 5-fold dilutions of the test compounds were added in a total volume of 100 ul, after which the virus inoculum (100 ul) was added to each well. […] Uninfected cells and cells receiving virus without compound were included in each assay plate. After 5 days, medium was removed and 90 μl of DMEM-FCS and 10 ul of MTS/PMS solution (Promega) was added to each well. Following a 2 hr incubation period at 37° C. the optical density of the wells was read at 498 nm in a microplate reader.

The nature of data set [2]: Cytostatic effect on exponentially growing MDBK cells (MTS). The conditions noted are these: bovine; Table 9; reduction of growth of exponentially growing MDBK cells by 50%; mean of 2-5 determinations. It counts as cell-based, Bovine. The procedure: Madin-Darbey Bovine Kidney (MDBK) cells were maintained in Dulbecco's modified Eagle medium (DMEM) supplemented with BVDV-free 5% fetal calf serum ([…]) at 37° C. in a humidified, 5% CO2 atmosphere. […] Vero cells were maintained in the same way as MDBK cells. […] The effect of the drugs on exponentially growing MDBK cells was assessed as follows. Cells were seeded at a density of 5000 cell/well in 96 well plates in MEM medium (Gibco) supplemented with 10% fetal calf serum, 2 mM L-glutamine (Life Technologies) and bicarbonate (Life Technologies). […] Cultures were then again further incubated for 3 days after which the effect on cell growth was quantified by means of the MTS method (Promega).

As a reminder, the EC50 is the concentration that produces a half-maximal response. As a reminder, the CC50 is the concentration giving 50% cytotoxicity. A high value points to better tolerance by the cells. `Fc1cccc(-c2nc3ccn(Cc4ccc(F)cc4F)cc-3n2)c1` [GPC-11, 5-[(2,4-Difluorophenyl)methyl]-2-(3-fluorophenyl)-5H-imidazo[4,5-c]pyridine]: the 50% effective concentration (EC50) in data set [1] stood at 4.76 µg/mL (≈ 14 µM); in the data set with BVDV-1 (strain PE515) it was 0.56 µg/mL (≈ 1.65 µM). For the same compound, the “TC50” value in the data set with Vero cells is over 100 µg/mL. Besides, in data set [2], the CC50 at 3 days was over 100 µg/mL.

Turning to `Fc1cccc(-c2nc3ccn(Cc4ccc(Br)cc4)cc-3n2)c1` [GPJN-50, 5-[(4-Bromophenyl)methyl]-2-(3-fluorophenyl)-5H-imidazo[4,5-c]pyridine], the concentration for a half-maximal effect (EC50) in data set [1] worked out at 8.47 µg/mL (≈ 22.2 µM); with BVDV-1 (strain PE515) it was 0.021 µg/mL (≈ 0.0549 µM). For the same compound, in the data set with Vero cells, the “TC50” value was over 100 µg/mL. In data set [2], this compound registered a half-maximal cytotoxic concentration (CC50) at 3 days of over 100 µg/mL.

For `Fc1cccc(F)c1-c1nc2ccn(Cc3ccc(Cl)c(Cl)c3)cc-2n1` [GPC-10, 5-[(3,4-Dichlorophenyl)methyl]-2-(2,6-difluorophenyl)-5H-imidazo[4,5-c]pyridine], the EC50 is 1.81 µg/mL (≈ 4.64 µM) in data set [1] and 0.064 µg/mL (≈ 0.164 µM) with BVDV-1 (strain PE515). The “TC50” value with Vero cells is 59 µg/mL (≈ 151 µM). Besides, half-maximal cytotoxicity in data set [2] (CC50 at 3 days) was put at 4 µg/mL (≈ 10.3 µM).

With `c1ccc(CCCCn2ccc3nc(-c4ccccc4)nc-3c2)cc1` [GPJN-27, 2-Phenyl-5-(4-phenylbutyl)-5H-imidazo[4,5-c]pyridine], the concentration for a half-maximal effect (EC50) in the data set on BVDV-1 (strain PE515) amounted to 0.945 µg/mL (≈ 2.89 µM). Besides, in data set [2], the CC50 at 3 days was over 46 µg/mL.

`CC(C)CCn1ccc2nc(-c3ccccc3)nc-2c1` [GPJN-38, 5-(3-Methylbutyl)-2-phenyl-5H-imidazo[4,5-c]pyridine]: the EC50 in the data set on BVDV-1 (strain PE515) stood at 0.235 µg/mL (≈ 0.886 µM). In data set [2], this compound displayed a CC50 at 3 days of 50 µg/mL (≈ 188 µM).

`COc1ccccc1Cn1ccc2nc(-c3ccccc3)nc-2c1` [GPJN-11, 5-[(2-Methoxyphenyl)methyl]-2-phenyl-5H-imidazo[4,5-c]pyridine]: in the data set on BVDV-1 (strain PE515), the concentration giving a half-maximal response (EC50) worked out at 0.032 µg/mL (≈ 0.101 µM). The compound further came in with a CC50 at 3 days in data set [2] of 36 µg/mL (≈ 114 µM).

Regarding `Fc1ccc(Cn2ccc3nc(-c4cc(F)ccc4F)nc-3c2)c(F)c1` [GPC-13, 2-(2,5-Difluorophenyl)-5-[(2,4-difluorophenyl)methyl]-5H-imidazo[4,5-c]pyridine], the concentration giving a half-maximal response (EC50) in the data set with BVDV-1 (strain PE515) is 0.067 µg/mL (≈ 0.188 µM). Further, the CC50 at 3 days in data set [2] was over 100 µg/mL.

For the compound `Fc1ccccc1Cn1ccc2nc(-c3ccccc3)nc-2c1` [GPJN-17, 5-[(2-Fluorophenyl)methyl]-2-phenyl-5H-imidazo[4,5-c]pyridine], the EC50 in the data set with BVDV-1 (strain PE515) came to 0.097 µg/mL (≈ 0.32 µM). This compound also registered a CC50 at 3 days in data set [2] of 50 µg/mL (≈ 165 µM).

Regarding `Brc1ccc(Cn2ccc3nc(-c4ccc5ccccc5c4)nc-3c2)cc1` [GPJN-63, 5-[(4-Bromophenyl)methyl]-2-(2-naphthalenyl)-5H-imidazo[4,5-c]pyridine], in the data set with BVDV-1 (strain PE515), the EC50 stood at 0.0042 µg/mL (≈ 0.0101 µM). The compound also displayed a CC50 at 3 days in data set [2] of 4.3 µg/mL (≈ 10.4 µM).

As to `CC(c1ccccc1)n1ccc2nc(-c3ccccc3)nc-2c1` (stereo not shown) [GPJN-33, 2-Phenyl-5-(1-phenylethyl)-5H-imidazo[4,5-c]pyridine], the EC50 with BVDV-1 (strain PE515) is 0.2 µg/mL (≈ 0.668 µM). In addition, in data set [2], the midpoint of cytotoxicity, the CC50 at 3 days, lay at 70 µg/mL (≈ 234 µM).

In the case of `Fc1ccc(Cn2ccc3nc(-c4c(F)ccc(F)c4F)nc-3c2)c(F)c1` [GPC-12, 5-[(2,4-Difluorophenyl)methyl]-2-(2,3,6-trifluorophenyl)-5H-imidazo[4,5-c]pyridine], the 50% effective concentration (EC50) in data set [1] was 3.6 µg/mL (≈ 9.59 µM). In addition, the “TC50” value in the data set with Vero cells was over 100 µg/mL.

As to `c1ccc(-c2nc3ccn(Cc4cccnc4)cc-3n2)cc1` [GPJN-35, 2-Phenyl-5-(3-pyridinylmethyl)-5H-imidazo[4,5-c]pyridine], the concentration for a half-maximal effect (EC50) in the data set with BVDV-1 (strain PE515) came to 0.365 µg/mL (≈ 1.27 µM). Moreover, the CC50 at 3 days in data set [2] was over 100 µg/mL.

As to `c1ccc(-c2nc3ccn(CC4CCCCC4)cc-3n2)cc1` [GPJN-37, 5-(Cyclohexylmethyl)-2-phenyl-5H-imidazo[4,5-c]pyridine], the EC50 with BVDV-1 (strain PE515) was determined as 0.161 µg/mL (≈ 0.553 µM). The half-maximal cytotoxic concentration (CC50) at 3 days in data set [2] worked out at 22 µg/mL (≈ 75.5 µM).

In the case of `Brc1cccc(-c2nc3ccn(Cc4ccc(I)cc4)cc-3n2)c1` [GPJN-79, 2-(3-Bromophenyl)-5-[(4-iodophenyl)methyl]-5H-imidazo[4,5-c]pyridine], the concentration for a half-maximal effect (EC50) in the data set on BVDV-1 (strain PE515) is 0.083 µg/mL (≈ 0.169 µM). Besides, the half-maximal cytotoxic concentration (CC50) at 3 days in data set [2] was over 100 µg/mL.

Source of the values: patent US8779141B2, “Viral inhibitors” (Gilead Sciences, Inc., priority 2002, dated 2014).
